Data set [1] concerns the target T1, NAD-dependent protein deacetylase sirtuin-2 (Homo sapiens) (UniProt Q8IXJ6).
T1 sequence (whole entry): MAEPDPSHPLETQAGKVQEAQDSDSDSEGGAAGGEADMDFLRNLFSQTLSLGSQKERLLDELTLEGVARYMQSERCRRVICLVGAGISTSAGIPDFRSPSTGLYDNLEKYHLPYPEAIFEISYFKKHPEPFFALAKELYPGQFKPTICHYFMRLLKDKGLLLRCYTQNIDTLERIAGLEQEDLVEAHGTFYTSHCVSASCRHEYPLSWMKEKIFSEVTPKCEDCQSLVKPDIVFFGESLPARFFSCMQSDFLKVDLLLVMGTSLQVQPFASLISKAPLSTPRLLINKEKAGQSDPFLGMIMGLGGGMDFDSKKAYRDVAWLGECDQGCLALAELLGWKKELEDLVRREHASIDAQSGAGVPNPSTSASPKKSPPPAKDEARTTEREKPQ
The data set is described as follows: Inhibition of SIRT2.

The subject of a further data set is Plasmodium falciparum. The data set is described as follows: Antiplasmodial activity against Plasmodium falciparum W2 assessed as picogreen-DNA intercalation by microfluorimetric assay. The class given is functional, organism-based.
The nature of data set [2]: Cytotoxicity against human NCI-H460 cells assessed as cell viability at 9 uM after 48 hrs by MTT assay. The class given is cell-based. The conditions noted are these: read-out: Activity. On the technique in general: Tetrazolium dyes change colour on reduction, which living cells bring about.
Data set [3] can be described thus: Cytotoxicity against human NCI-H460 cells assessed as cell viability at 55 uM after 48 hrs by MTT assay. The class given is cell-based. The note with it: read-out: Activity.
Data set [4] concerns the target T1, NAD-dependent protein deacetylase sirtuin-2 (Homo sapiens). Nature of the data set: Inhibition of SIRT2 at 50 uM.

Here are results for two compounds from ChEMBL document CHEMBL1157062, “Malyngolide dimer, a bioactive symmetric cyclodepside from the panamanian marine cyanobacterium Lyngbya majuscula” (J Nat Prod, 2010).

In turn, `CCCCCCCCCCC[C@]1(CO)CCCC(=O)O[C@](CO)(CCCCCCCCCCC)CCCC(=O)O1` gave an INH in data set [1] of 0.176 µM.
As to `CCCCCCCCC[C@@]1(CO)CC[C@@H](C)C(=O)O[C@@](CO)(CCCCCCCCC)CC[C@@H](C)C(=O)O1`, the IC50 (as a rule, the concentration at which inhibition is half-maximal) in the data set with Plasmodium falciparum worked out at 19 µM. Besides, the viability at 48 h, 9 µM in data set [2] turned out to be 110%. Besides, the viability at 48 h, 55 µM in data set [3] is 10%. Also, the inhibition (in general, the change of the read-out against control, counted positive when it falls) in data set [4] turned out to be 30%.
